Patent US12606528B2, “Methods and materials for inhibiting NF-kB activity” (University of Pittsburgh - Of the Commonwealth System of …, priority 2019, dated 2026)
Like-named read-outs stand apart in the source and are kept apart here.

Assays:
NF-κB = NF-κB assay: THP1-NF-κB-LUC cells, LPS-stimulated secreted luciferase; format: cell-based; conditions: THP1-NF-κB-LUC cells, read-out: IC50 (NF-κB assay)
Procedure, shortened: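 THP1-NF-κB-LUC cells (25k/well) were pretreated with compounds for 2 h, then stimulated with LPS (10 ng/mL) for 18 h. Secreted luciferase was measured and normalized to vehicle, and IC50 was fitted from the concentration series.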

TNF release = test: TNF assay: TNF release from LPS-stimulated human PBMCs (TNF ELISA); format: cell-based; conditions: PBMC, read-out: IC50 (TNF assay)
Procedure, shortened: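 Human PBMCs at 10k/well pretreated with compound dilutions 2 h, then stimulated with LPS (10 ng/mL) for 18 h. TNF in supernatants quantified by ELISA; IC50 for inhibition of TNF release fitted from concentration–response.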

[1] = LPS-stimulated human PBMCs, TNF ELISA
[2] = compounds 2 hours before LPS (10 ng/mL) for 18 hours, secreted luciferase
[3] = human PBMCs, compounds 2 hours before LPS (10 ng/ml) for 18 hours, supernatant TNF ELISA

Row | SMILES | IC50 (NF-κB; LPS-stimulated) | IC50 (TNF release; [1]) | IC50 (NF-κB; [2]) | IC50 (TNF release; [3])
1 | CCc1ccc(NS(=O)(=O)c2cc3c(cc2Br)NC(=O)CCO3)cc1 [BC19690] | > 10 µM | > 10 µM | – | –
2 | COc1ccc(NS(=O)(=O)c2cc3c(cc2Br)NC(=O)CCO3)cc1 [BC19692] | > 10 µM | > 10 µM | – | –
3 | O=C1CCOc2cc(S(=O)(=O)Nc3ccc(F)cc3F)c(Br)cc2N1 [BC19693] | > 10 µM | > 10 µM | – | –
4 | COc1ccc(NS(=O)(=O)c2cc3c(cc2Br)NC(=O)CCO3)cc1Cl [BC19694] | > 10 µM | > 10 µM | – | –
5 | N#Cc1ccc(NS(=O)(=O)c2cc3c(cc2Br)NC(=O)CCO3)cc1 [BC19695] | > 10 µM | 1 to 10 µM | – | –
6 | CC1Oc2cc(S(=O)(=O)Nc3ccc(Cl)cc3)c(Cl)cc2NC1=O (stereo not shown) [BC19696] | – | – | 0.1 to 1 µM | > 10 µM
7 | CC1Oc2c(cc(Cl)cc2S(=O)(=O)Nc2ccc(Cl)cc2)NC1=O (stereo not shown) [BC19697] | – | – | < 0.1 µM | > 10 µM
8 | CC1Oc2cc(S(=O)(=O)Nc3ccc(F)c(F)c3)c(Cl)cc2NC1=O (stereo not shown) [BC19698] | – | – | < 0.1 µM | > 10 µM
9 | CC1Oc2c(cc(Cl)cc2S(=O)(=O)Nc2ccc(F)c(F)c2)NC1=O (stereo not shown) [BC19699] | – | – | < 0.1 µM | > 10 µM
10 | Cc1ccc(NS(=O)(=O)c2cc3c(cc2Cl)NC(=O)C(C)O3)cc1F (stereo not shown) [BC19700] | – | – | < 0.1 µM | > 10 µM
11 | Cc1ccc(NS(=O)(=O)c2cc(Cl)cc3c2OC(C)C(=O)N3)cc1F (stereo not shown) [BC19701] | – | – | < 0.1 µM | > 10 µM
12 | CCc1ccc(NS(=O)(=O)c2cc3c(cc2Cl)NC(=O)C(C)O3)cc1 (stereo not shown) [BC19702] | – | – | < 0.1 µM | > 10 µM
13 | CCc1ccc(NS(=O)(=O)c2cc(Cl)cc3c2OC(C)C(=O)N3)cc1 (stereo not shown) [BC19703] | – | – | < 0.1 µM | > 10 µM
14 | CC1Oc2c(cc(Cl)cc2S(=O)(=O)Nc2ccc(C(C)C)cc2)NC1=O (stereo not shown) [BC19705] | – | – | < 0.1 µM | > 10 µM
15 | COc1ccc(NS(=O)(=O)c2cc3c(cc2Cl)NC(=O)C(C)O3)cc1 (stereo not shown) [BC19706] | – | – | < 0.1 µM | > 10 µM
16 | COc1ccc(NS(=O)(=O)c2cc(Cl)cc3c2OC(C)C(=O)N3)cc1 (stereo not shown) [BC19707] | – | – | < 0.1 µM | > 10 µM
17 | Cc1ccc(NS(=O)(=O)c2cc3c(cc2Cl)NC(=O)C(C)O3)cc1Cl (stereo not shown) [BC19708] | – | – | < 0.1 µM | > 10 µM
18 | CC1Oc2cc(S(=O)(=O)Nc3ccc(F)cc3F)c(Cl)cc2NC1=O (stereo not shown) [BC19709] | – | – | < 0.1 µM | > 10 µM

Row | SMILES | IC50 (NF-κB; LPS-stimulated) | IC50 (TNF release; [1]) | IC50 (NF-κB; [2]) | IC50 (TNF release; [3])
19 | CC1Oc2c(cc(Cl)cc2S(=O)(=O)Nc2ccc(F)cc2F)NC1=O (stereo not shown) [BC19710] | – | – | < 0.1 µM | > 10 µM
20 | CCc1cccc(NS(=O)(=O)c2cc3c(cc2Cl)NC(=O)C(C)O3)c1 (stereo not shown) [BC19711] | – | – | < 0.1 µM | > 10 µM
21 | CCc1cccc(NS(=O)(=O)c2cc(Cl)cc3c2OC(C)C(=O)N3)c1 (stereo not shown) [BC19712] | – | – | < 0.1 µM | > 10 µM
22 | CC1Oc2cc(S(=O)(=O)Nc3cccc(F)c3)c(Cl)cc2NC1=O (stereo not shown) [BC19713] | – | – | 0.1 to 1 µM | 1 to 10 µM
23 | CC1Oc2c(cc(Cl)cc2S(=O)(=O)Nc2cccc(F)c2)NC1=O (stereo not shown) [BC19714] | – | – | < 0.1 µM | 1 to 10 µM
24 | CC1Oc2cc(S(=O)(=O)Nc3cccc(Cl)c3)c(Cl)cc2NC1=O (stereo not shown) [BC19715] | – | – | < 0.1 µM | 1 to 10 µM
25 | CC1Oc2c(cc(Cl)cc2S(=O)(=O)Nc2cccc(Cl)c2)NC1=O (stereo not shown) [BC19716] | – | – | < 0.1 µM | 1 to 10 µM
26 | Cc1ccc(NS(=O)(=O)c2cc3c(cc2Cl)NC(=O)C(C)O3)cc1 (stereo not shown) [BC19717] | – | – | < 0.1 µM | > 10 µM
27 | Cc1ccc(NS(=O)(=O)c2cc(Cl)cc3c2OC(C)C(=O)N3)cc1 (stereo not shown) [BC19718] | – | – | < 0.1 µM | 1 to 10 µM
28 | CC1Oc2cc(S(=O)(=O)Nc3ccc(F)cc3Cl)c(Cl)cc2NC1=O (stereo not shown) [BC19719] | – | – | 0.1 to 1 µM | > 10 µM
29 | CC1Oc2c(cc(Cl)cc2S(=O)(=O)Nc2ccc(F)cc2Cl)NC1=O (stereo not shown) [BC19720] | – | – | < 0.1 µM | > 10 µM
30 | CC1Oc2cc(S(=O)(=O)Nc3ccc(F)cc3)c(Cl)cc2NC1=O (stereo not shown) [BC19721] | – | – | < 0.1 µM | 1 to 10 µM
31 | CC1Oc2c(cc(Cl)cc2S(=O)(=O)Nc2ccc(F)cc2)NC1=O (stereo not shown) [BC19722] | – | – | < 0.1 µM | 1 to 10 µM
32 | CN1CCN(C(=O)C2Cc3nc(-c4ccc(F)cc4)c(-c4ccc(F)cc4)nc3C2)CC1 [BC19723] | 0.1 to 1 µM | > 10 µM | – | –
33 | CCC[S+]([O-])c1sc(-c2cccnc2)nc1S(=O)(=O)c1ccc(Cl)cc1 (stereo not shown) [BC19724] | 1 to 10 µM | 1 to 10 µM | – | –
34 | CC(C)[S+]([O-])c1sc(-c2cccnc2)nc1S(=O)(=O)c1ccc(Cl)cc1 (stereo not shown) [BC19725] | > 10 µM | > 10 µM | – | –
35 | CC(C)Sc1snc(-c2ccc(F)cc2)c1S(=O)(=O)c1ccc(Cl)cc1 [BC19726] | > 10 µM | > 10 µM | – | –
